Tests used:
[1] = target: T1, WRN [UniPro: Q14191 (WRN_HUMAN), N500-C946] (Homo sapiens (Human), UniProt Q14191); assay: WRN unwinding assay (FORKF DNA, fluorescence); type: biochemical; conditions: Table 14
[2] = target: T1, WRN [UniPro: Q14191 (WRN_HUMAN), N500-C946]; assay: WRN ATPase assay (ADP-Glo); type: biochemical; conditions: WRN enzymatic activity assay

T1 sequence (Q14191 500-946): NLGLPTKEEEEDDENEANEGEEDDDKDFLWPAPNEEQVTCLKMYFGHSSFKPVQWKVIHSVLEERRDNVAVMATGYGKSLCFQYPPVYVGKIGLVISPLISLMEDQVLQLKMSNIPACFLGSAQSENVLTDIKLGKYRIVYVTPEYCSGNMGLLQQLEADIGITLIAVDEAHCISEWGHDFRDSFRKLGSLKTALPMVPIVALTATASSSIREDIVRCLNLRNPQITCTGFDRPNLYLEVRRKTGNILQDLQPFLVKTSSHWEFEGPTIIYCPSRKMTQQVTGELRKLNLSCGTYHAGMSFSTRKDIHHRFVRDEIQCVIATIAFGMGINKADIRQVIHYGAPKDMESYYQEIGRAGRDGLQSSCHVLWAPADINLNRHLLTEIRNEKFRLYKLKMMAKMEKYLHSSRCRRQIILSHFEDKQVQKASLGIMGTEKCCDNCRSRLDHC

| SMILES | IC50 [1] | IC50 [2] |
| --- | --- | --- |
| CCc1c(N2CCN(C(=O)CNC(=O)N3Cc4ccncc4C3)CC2)c(=O)n2nc(C3=CCOCC3)nc2n1CC(=O)Nc1ccc(C(F)(F)F)cc1Cl [Example 192, N-(2-(4-(4-(2-((2-Chloro-4-(trifluoromethyl)phenyl)amino)-2-oxoethyl)-2-(3,6-dihydro-2H-pyran-4-yl)-5-ethyl-7-oxo-4,7-dihydro-[1,2,4]triazolo[1,5-a]pyrimidin-6-yl)piperazin-1-yl)-2-oxoethyl)-1,3-dihydro-2H-pyrrolo[3,4-c]pyridine-2-carboxamide] | < 100 nM | < 100 nM |
| CCc1c(N2CCN(S(=O)(=O)NC(=O)c3ccccc3)CC2)c(=O)n2nc(C3=CCOCC3)nc2n1CC(=O)Nc1ccc(C(F)(F)F)cc1Cl [Example 194, N-((4-(4-(2-((2-Chloro-4-(trifluoromethyl)phenyl)amino)-2-oxoethyl)-2-(3,6-dihydro-2H-pyran-4-yl)-5-ethyl-7-oxo-4,7-dihydro-[1,2,4]triazolo[1,5-a]pyrimidin-6-yl)piperazin-1-yl)sulfonyl)benzamide] | < 100 nM | < 100 nM |
| CCc1c(N2CCN(C(=O)CNC(=O)N3CCCC3)CC2)c(=O)n2nc(C3=CCOCC3)nc2n1CC(=O)Nc1ccc(C(F)(F)F)cc1Cl [Example 166, N-(2-(4-(4-(2-((2-Chloro-4-(trifluoromethyl)phenyl)amino)-2-oxoethyl)-2-(3,6-dihydro-2H-pyran-4-yl)-5-ethyl-7-oxo-4,7-dihydro-[1,2,4]triazolo[1,5-a]pyrimidin-6-yl)piperazin-1-yl)-2-oxoethyl)pyrrolidine-1-carboxamide] | < 100 nM | 100 to 1000 nM |
| CCc1c(N2CCN(C(=O)CNC(=O)c3ccccn3)CC2)c(=O)n2nc(C3=CCOCC3)nc2n1CC(=O)Nc1ccc(C(F)(F)F)cc1Cl [Example 95, N-(2-(4-(4-(2-((2-Chloro-4-(trifluoromethyl)phenyl)amino)-2-oxoethyl)-2-(3,6-dihydro-2H-pyran-4-yl)-5-ethyl-7-oxo-4,7-dihydro-[1,2,4]triazolo[1,5-a]pyrimidin-6-yl)piperazin-1-yl)-2-oxoethyl)picolinamide] | < 100 nM | < 100 nM |
| CCc1c(N2CCN(C(=O)Nc3[nH]cnc3C(F)(F)F)CC2)c(=O)n2nc(C3=CCOCC3)nc2n1CC(=O)Nc1ccc(C(F)(F)F)cc1Cl [Example 30, 4-(4-(2-((2-Chloro-4-(trifluoromethyl)phenyl)amino)-2-oxoethyl)-2-(3,6-dihydro-2H-pyran-4-yl)-5-ethyl-7-oxo-4,7-dihydro-[1,2,4]triazolo[1,5-a]pyrimidin-6-yl)-N-(4-(trifluoromethyl)-1H-imidazol-5-yl)piperazine-1-carboxamide] | < 100 nM | 100 to 1000 nM |
| CCc1c(N2CCN(C(=O)c3ncc4ncsc4c3O)CC2)c(=O)n2nc(C3=CCOCC3)nc2n1CC(=O)Nc1ccc(C(F)(F)F)cc1Cl [Example 195, N-(2-Chloro-4-(trifluoromethyl)phenyl)-2-(2-(3,6-dihydro-2H-pyran-4-yl)-5-ethyl-6-(4-(7-hydroxythiazolo[4,5-c]pyridine-6-carbonyl)piperazin-1-yl)-7-oxo-[1,2,4]triazolo[1,5-a]pyrimidin-4(7H)-yl)acetamide] | < 100 nM | < 100 nM |

Second part, the molecule after the results:

| IC50 [1] | IC50 [2] | SMILES |
| --- | --- | --- |
| < 100 nM | < 100 nM | CCc1c(N2CCN(C(=O)CNC(=O)CC(C)C)CC2)c(=O)n2nc(C3=CCOCC3)nc2n1CC(=O)Nc1ccc(C(F)(F)F)cc1Cl [Example 320, N-(2-(4-(4-(2-((2-Chloro-4-(Trifluoromethyl)phenyl)amino)-2-oxoethyl)-2-(3,6-dihydro-2H-pyran-4-yl)-5-ethyl-7-oxo-4,7-dihydro-[1,2,4]triazolo[1,5-a]pyrimidin-6-yl)piperazin-1-yl)-2-oxoethyl)-3-methylbutanamide] |
| 100 to 1000 nM | 100 to 1000 nM | CCc1c(N2CCN(C(=O)CN(C)C(C)=O)CC2)c(=O)n2nc(C3=CCOCC3)nc2n1CC(=O)Nc1ccc(C(F)(F)F)cc1Cl [Example 323, 2-(6-(4-(N-Acetyl-N-methylglycyl)piperazin-1-yl)-2-(3,6-dihydro-2H-pyran-4-yl)-5-ethyl-7-oxo-[1,2,4]triazolo[1,5-a]pyrimidin-4(7H)-yl)-N-(2-chloro-4-(trifluoromethyl)phenyl)acetamide] |
| < 100 nM | < 100 nM | CCc1c(N2CCN(C(=O)CNC(=O)c3ccc(F)s3)CC2)c(=O)n2nc(C3=CCOCC3)nc2n1CC(=O)Nc1ccc(C(F)(F)F)cc1Cl [Example 375, N-(2-(4-(4-(2-((2-Chloro-4-(trifluoromethyl)phenyl)amino)-2-oxoethyl)-2-(3,6-dihydro-2H-pyran-4-yl)-5-ethyl-7-oxo-4,7-dihydro-[1,2,4]triazolo[1,5-a]pyrimidin-6-yl)piperazin-1-yl)-2-oxoethyl)-5-fluorothiophene-2-carboxamide] |
| < 100 nM | 100 to 1000 nM | CCc1c(N2CCN(C(=O)CNC(=O)c3ccccc3)CC2)c(=O)n2nc(N3CCc4ncccc43)nc2n1CC(=O)Nc1ccc(C(F)(F)F)cc1Cl [Example 234, N-(2-(4-(4-(2-((2-Chloro-4-(trifluoromethyl)phenyl)amino)-2-oxoethyl)-2-(2,3-dihydro-1H-pyrrolo[3,2-b]pyridin-1-yl)-5-ethyl-7-oxo-4,7-dihydro-[1,2,4]triazolo[1,5-a]pyrimidin-6-yl)piperazin-1-yl)-2-oxoethyl)benzamide] |
| < 100 nM | < 100 nM | CCc1c(N2CCN(C(=O)c3cnc4sc(Cl)nc4c3O)CC2)c(=O)n2nc(C3=CCOCC3)nc2n1CC(=O)Nc1ccc(C(F)(F)F)cc1F [Example 308, 2-(6-(4-(2-Chloro-7-hydroxythiazolo[5,4-b]pyridine-6-carbonyl)piperazin-1-yl)-2-(3,6-dihydro-2H-pyran-4-yl)-5-ethyl-7-oxo-[1,2,4]triazolo[1,5-a]pyrimidin-4(7H)-yl)-N-(2-fluoro-4-(trifluoromethyl)phenyl)acetamide] |
| > 1000 nM | > 1000 nM | CCc1c(N2CCN(C(=O)CNc3ncnc4[nH]ccc34)CC2)c(=O)n2nc(C3=CCOCC3)nc2n1CC(=O)Nc1ccc(C(F)(F)F)cc1Cl [Example 363, 2-(6-(4-((7H-Pyrrolo[2,3-d]pyrimidin-4-yl)glycyl)piperazin-1-yl)-2-(3,6-dihydro-2H-pyran-4-yl)-5-ethyl-7-oxo-[1,2,4]triazolo[1,5-a]pyrimidin-4(7H)-yl)-N-(2-chloro-4-(trifluoromethyl)phenyl)acetamide] |
| < 100 nM | < 100 nM | CCc1c(N2CCN(C(=O)C(=O)Nc3nc(C)co3)CC2)c(=O)n2nc(C3=CCOCC3)nc2n1CC(=O)Nc1ccc(C(F)(F)F)cc1F [Example 355, 2-(4-(2-(3,6-Dihydro-2H-pyran-4-yl)-5-ethyl-4-(2-((2-fluoro-4-(trifluoromethyl)phenyl)amino)-2-oxoethyl)-7-oxo-4,7-dihydro-[1,2,4]triazolo[1,5-a]pyrimidin-6-yl)piperazin-1-yl)-N-(4-methyloxazol-2-yl)-2-oxoacetamide] |
| < 100 nM | < 100 nM | CCc1c(N2CCN(C(=O)CNC(=O)c3cc(NC)c(F)cc3F)CC2)c(=O)n2nc(C3=CCOCC3)nc2n1CC(=O)Nc1ccc(C(F)(F)F)cc1F [Example 213, N-(2-(4-(2-(3,6-Dihydro-2H-pyran-4-yl)-5-ethyl-4-(2-((2-fluoro-4-(trifluoromethyl)phenyl)amino)-2-oxoethyl)-7-oxo-4,7-dihydro-[1,2,4]triazolo[1,5-a]pyrimidin-6-yl)piperazin-1-yl)-2-oxoethyl)-2,4-difluoro-5-(methylamino)benzamide] |

Source: US20260015358A1, “BICYCLIC DERIVATIVES, COMPOSITIONS AND USES THEREOF” (Danatlas Pharmaceuticals Co., Ltd., priority 2023, published 2026)
